Results published in patent publication US4663325A, “1-(2,3,4-tri-methoxybenzyl)-4[bis(4-fluorophenyl)methyl] piperazines are useful for treating cerebrovascular disease” (Kanebo Ltd., priority 1984, dated 1987).

Experiments:
vertebral blood flow = assay: Activity of increasing cerebral blood flow (vertebral blood flow as index, anesthetized dogs, intravenous); format: in vivo; conditions: 1 mg/kg i.v. (right femoral vein), anesthetized mongrel dogs
Experimental: The activity of increasing cerebral blood flow was measured by using the amount of vertebral blood flow as an index. Mongrel dogs of either sex (body weight 11 to 18 kg; four per groups) were anesthetized with sodium pentobarbital (30 mg/kg, by intravenous injection), and the right vertebral artery was isolated from the surrounding tissues. A flow probe was attached to it and led to an electromagnetic flow meter (MFV-2100 made by Nihon Kohden Co., Ltd.). The amount of blood flow was periodically measured [see Meth and Find Exptl Clin Pharmacol, 3 (6), 397 (1981)].
Each of the test compounds was dissolved in a 2% tartaric acid solution containing 20% dimethylacetamide, and administered to the right femoral vein in a dose of 1 mg/kg.

[1] = test system: death induced by collagen and adrenaline; assay: Activity of defending thromboembolism-induced death (collagen and adrenaline, mice, oral); format: in vivo, ddY-strain male mice; conditions: Mus musculus, 1 h, one hour before collagen (400 micrograms/kg) and adrenaline (50 micrograms/kg) i.v., male ddY mice, probit method, read-out: ED50 (dose required to defend death induced by collagen and adrenaline to an extent of 50%)
Experimental: The compounds A, B, C and D of the invention and the comparative compounds 1 and 2 were used.
Each of the test compounds was dissolved or suspended in a 1% gum arabic solution, and orally administered to ddY-strain male mice (body weight 18 to 25 g; five per group). […] The dose required to defend death induced by collagen and adrenaline to an extent of 50% (ED50) was determined by the probit method (see The Journal of Pharmacology and Experimental Therapeutics, Vol. 225, page 57, 1983).

[2] = Acute toxicity (oral, mice); conditions: mouse, in vivo, fasted male ddY mice, deaths during seven days, Weil method
Experimental: ddY-strain male mice (body weight 18 to 22 g; five per group) were caused to fast 24 hours. Then, each of the compounds of this invention (A, B, C and D) was administered orally, and acute toxicity values (LD50) were determined.
Each of the compounds was dissolved or suspended in a 2% tartaric acid solution containing 20% of dimethylacetamide, and orally administered to the animals. From the number of animals which died during seven days, the LD50 values were calculated by using the Weil method.

[3] = 0.5 minutes after administration
[4] = 10 minutes after administration
[5] = 20 minutes after administration

Structure (SMILES) | Increase (%) in vertebral blood flow (mean ± standard error) (vertebral blood flow; [3]) | Increase (%) in vertebral blood flow (mean ± standard error) (vertebral blood flow; 3 minutes after administration) | Increase (%) in vertebral blood flow (mean ± standard error) (vertebral blood flow; 5 minutes after administration) | Increase (%) in vertebral blood flow (mean ± standard error) (vertebral blood flow; [4]) | Increase (%) in vertebral blood flow (mean ± standard error) (vertebral blood flow; [5]) | ED50 [1] | LD50 at 168 h [2]
COc1ccc(CN2CCN(C(c3ccccc3)c3ccc(F)cc3)CC2)c(OC)c1.O=C(O)/C=C/C(=O)O (stereo not drawn) [A, 1-(2,4-Dimethoxybenzyl)-4-(4-fluorobenzhydryl)-piperazine fumarate] | 80.1 ± 17.0% | 56.5 ± 15.0% | 39.1 ± 12.2% | 16.2 ± 5.4% | 11.3 ± 4.1% | 29.6 mg/kg | 300 mg/kg
COc1ccc(CN2CCN(C(c3ccc(F)cc3)c3ccc(F)cc3)CC2)c(OC)c1.Cl.Cl.O.O [B, 1-(2,4-Dimethoxybenzyl)-4-[bis(4-fluorophenyl)-methyl]piperazine dihydrochloride dihydrate] | 105.6 ± 3.9% | 85.8 ± 15.0% | 77.0 ± 15.6% | 47.5 ± 17.7% | 27.1 ± 13.4% | 24.6 mg/kg | 225 mg/kg
COc1ccc(CN2CCN(C(c3ccccc3)c3ccc(F)cc3)CC2)c(OC)c1OC.O=C(O)/C=C/C(=O)O (stereo not drawn) [C, 1-(2,3,4-Trimethoxybenzyl)-4-(4-fluorobenzhydryl)piperazine fumarate] | 76.7 ± 15.1% | 61.2 ± 14.9% | 50.6 ± 12.4% | 27.7 ± 6.3% | 16.4 ± 4.6% | 32.7 mg/kg | 650 mg/kg
C(=Cc1ccccc1)CN1CCN(C(c2ccccc2)c2ccccc2)CC1 [Cinnarizine, 1-Cinnamyl-4-benzhydrylpiperazine, reference compound] | 65.6 ± 18.2% | 34.7 ± 15.6% | 17.0 ± 8.7% | 2.9 ± 3.8% | 0% | – | –
COc1ccc(CN2CCN(C(c3ccc(F)cc3)c3ccc(F)cc3)CC2)c(OC)c1OC.Cl.Cl [Compound D, 1-(2,3,4-Trimethoxybenzyl)-4-[bis(4-fluorophenyl)methyl]piperazine dihydrochloride] | 95.9 ± 14.5% | 102.6 ± 24.5% | 107.0 ± 23.9% | 87.0 ± 21.1% | 65.1 ± 15.3% | 7.7 mg/kg | 300 mg/kg
COc1ccc(CN2CCN(C(c3ccccc3)c3ccccc3)CC2)c(OC)c1OC.Cl.Cl.O [compound 1, 1-(2,3,4-Trimethoxybenzyl)-4-benzhydrylpiperazine dihydrochloride monohydrate, reference compound] | 75.3 ± 20.0% | 39.2 ± 15.3% | 25.6 ± 12.5% | 10.0 ± 5.3% | 5.0 ± 3.3% | 55.4 mg/kg | –
Cl.Cl.c1ccc(C(c2ccccc2)N2CCN(Cc3ccc4c(c3)OCO4)CC2)cc1 [compound 2, 1-(3,4-Methylenedioxybenzyl)-4-benzhydrylpiperazine dihydrochloride, reference compound] | 50.6 ± 13.2% | 13.5 ± 6.9% | 7.4 ± 4.9% | 2.5 ± 3.3% | 0.4 ± 2.2% | 44.7 mg/kg | –
